ChEMBL document CHEMBL1201862, “PubChem BioAssay data set” (2004)
The source made the active and inactive calls.

Experiments:
[1] = biological target: Intestinal-type alkaline phosphatase (Mus musculus, UniProt P24822); assay: PubChem AID 488785; assay type: functional
[2] = biological target: Intestinal-type alkaline phosphatase (Homo sapiens, UniProt P09923); assay: inhibition of human intestinal alkaline phosphatase – biochemical, dose response (AID 488876); assay type: functional
[3] = biological target: T1, Heat shock factor protein 1 (Mus musculus, UniProt P38532); assay: decrease of HSF1-responsive luciferase luminescence – cell-based, NIH3T3, dose retest, confirmation (AID 2382); assay type: functional;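 further: NIH3T3 fibroblasts with HSF1-driven luciferase reporter stressed by proteasome inhibitor MG132; luminescence from HSF1-driven luciferase expression after 8 hours of MG132 stress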
T1 sequence (P38532 whole entry): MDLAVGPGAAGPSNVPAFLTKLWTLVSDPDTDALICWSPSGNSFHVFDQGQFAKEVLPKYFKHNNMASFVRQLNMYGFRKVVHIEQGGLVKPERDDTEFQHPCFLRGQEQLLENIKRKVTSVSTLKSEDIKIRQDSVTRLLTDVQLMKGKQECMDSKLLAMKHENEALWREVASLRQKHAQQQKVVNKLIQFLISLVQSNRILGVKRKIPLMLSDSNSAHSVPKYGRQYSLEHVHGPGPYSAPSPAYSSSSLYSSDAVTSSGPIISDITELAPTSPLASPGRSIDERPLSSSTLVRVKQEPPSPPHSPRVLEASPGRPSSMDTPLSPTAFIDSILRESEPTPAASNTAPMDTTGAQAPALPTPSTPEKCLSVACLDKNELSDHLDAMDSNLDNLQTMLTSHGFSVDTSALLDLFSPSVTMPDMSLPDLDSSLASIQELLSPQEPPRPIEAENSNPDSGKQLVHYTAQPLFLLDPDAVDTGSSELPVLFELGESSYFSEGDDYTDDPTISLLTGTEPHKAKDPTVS

[4] = biological target: T2, Alkaline phosphatase, tissue-nonspecific isozyme (Homo sapiens, UniProt P05186); assay: TNAP enzyme inhibition by screening hits, dose response, selectivity assay for mouse IAP inhibitor project, biochemical, human TNAP, uHTS hits (AID 488906); assay type: functional
T2 sequence (P05186 whole entry): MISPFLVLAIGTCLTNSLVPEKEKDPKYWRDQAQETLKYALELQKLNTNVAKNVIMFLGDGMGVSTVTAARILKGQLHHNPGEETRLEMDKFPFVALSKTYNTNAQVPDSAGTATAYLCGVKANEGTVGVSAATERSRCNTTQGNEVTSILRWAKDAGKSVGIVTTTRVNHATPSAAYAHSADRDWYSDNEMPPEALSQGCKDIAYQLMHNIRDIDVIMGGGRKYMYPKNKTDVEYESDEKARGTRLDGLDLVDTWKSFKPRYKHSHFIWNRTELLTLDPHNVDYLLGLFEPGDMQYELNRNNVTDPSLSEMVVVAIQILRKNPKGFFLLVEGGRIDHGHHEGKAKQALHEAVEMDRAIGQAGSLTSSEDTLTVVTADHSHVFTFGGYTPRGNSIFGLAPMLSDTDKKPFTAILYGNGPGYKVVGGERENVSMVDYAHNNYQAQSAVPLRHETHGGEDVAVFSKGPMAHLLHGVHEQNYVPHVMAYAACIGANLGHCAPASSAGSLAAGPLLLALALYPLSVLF

[5] = biological target: Dual specificity protein phosphatase 6 (Rattus norvegicus, UniProt Q64346); assay: inhibition of rat DUSP6 enzyme activity – biochemical, in vitro, primary screen (AID 425)
Chain of Dual specificity protein phosphatase 6 (Q64346 whole entry): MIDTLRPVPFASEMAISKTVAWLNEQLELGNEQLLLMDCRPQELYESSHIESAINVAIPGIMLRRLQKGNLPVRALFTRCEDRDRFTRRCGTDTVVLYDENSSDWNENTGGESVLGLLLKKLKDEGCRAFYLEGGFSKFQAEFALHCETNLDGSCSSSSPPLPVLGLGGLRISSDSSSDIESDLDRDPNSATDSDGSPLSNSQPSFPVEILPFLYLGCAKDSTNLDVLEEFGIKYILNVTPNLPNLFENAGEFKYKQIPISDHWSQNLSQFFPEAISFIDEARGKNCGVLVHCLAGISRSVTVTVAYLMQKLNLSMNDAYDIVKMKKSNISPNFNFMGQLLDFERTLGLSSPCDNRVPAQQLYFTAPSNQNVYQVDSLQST

[6] = biological target: T3, Dual specificity protein phosphatase 3 (Homo sapiens, UniProt P51452); assay: VHR1 phosphatase inhibitors, primary screen, biochemical, absorbance, uHTS (AID 1654)
T3 sequence (P51452 whole entry): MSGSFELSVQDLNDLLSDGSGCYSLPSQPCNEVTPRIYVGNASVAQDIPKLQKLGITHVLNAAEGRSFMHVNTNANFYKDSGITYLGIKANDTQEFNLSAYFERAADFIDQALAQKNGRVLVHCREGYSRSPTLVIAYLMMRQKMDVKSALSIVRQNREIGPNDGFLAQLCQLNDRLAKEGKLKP

Cytochrome P450 2C9 = Cytochrome P450 2C9 (Homo sapiens, UniProt P11712)
Chain of Cytochrome P450 2C9 (P11712 whole entry): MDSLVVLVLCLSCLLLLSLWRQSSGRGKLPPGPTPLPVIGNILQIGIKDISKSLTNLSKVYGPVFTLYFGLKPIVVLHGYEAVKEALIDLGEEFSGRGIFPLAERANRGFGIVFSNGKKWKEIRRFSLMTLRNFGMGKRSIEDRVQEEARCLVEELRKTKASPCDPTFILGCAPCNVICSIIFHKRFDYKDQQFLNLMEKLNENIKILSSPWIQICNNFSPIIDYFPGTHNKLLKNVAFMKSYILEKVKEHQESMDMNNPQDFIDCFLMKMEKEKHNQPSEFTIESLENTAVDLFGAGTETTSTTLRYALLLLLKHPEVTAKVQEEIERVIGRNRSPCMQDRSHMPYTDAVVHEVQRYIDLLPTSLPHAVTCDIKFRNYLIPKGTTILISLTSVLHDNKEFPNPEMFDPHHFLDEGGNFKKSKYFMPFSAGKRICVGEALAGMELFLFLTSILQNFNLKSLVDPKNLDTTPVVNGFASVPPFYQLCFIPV

[7] = biological target: T3, Dual specificity protein phosphatase 3; assay: VHR1 phosphatase inhibitors, biochemical (AID 1878)
[8] = biological target: T4, Nucleotide-binding oligomerization domain-containing protein 2 (Homo sapiens, UniProt Q9HC29); assay: inhibition of MDP-driven NOD2 NF-kB reporter – cell-based, set 3, SAR follow-up (AID 2799); assay type: functional
T4 sequence (Q9HC29 whole entry, the tested form may be a part): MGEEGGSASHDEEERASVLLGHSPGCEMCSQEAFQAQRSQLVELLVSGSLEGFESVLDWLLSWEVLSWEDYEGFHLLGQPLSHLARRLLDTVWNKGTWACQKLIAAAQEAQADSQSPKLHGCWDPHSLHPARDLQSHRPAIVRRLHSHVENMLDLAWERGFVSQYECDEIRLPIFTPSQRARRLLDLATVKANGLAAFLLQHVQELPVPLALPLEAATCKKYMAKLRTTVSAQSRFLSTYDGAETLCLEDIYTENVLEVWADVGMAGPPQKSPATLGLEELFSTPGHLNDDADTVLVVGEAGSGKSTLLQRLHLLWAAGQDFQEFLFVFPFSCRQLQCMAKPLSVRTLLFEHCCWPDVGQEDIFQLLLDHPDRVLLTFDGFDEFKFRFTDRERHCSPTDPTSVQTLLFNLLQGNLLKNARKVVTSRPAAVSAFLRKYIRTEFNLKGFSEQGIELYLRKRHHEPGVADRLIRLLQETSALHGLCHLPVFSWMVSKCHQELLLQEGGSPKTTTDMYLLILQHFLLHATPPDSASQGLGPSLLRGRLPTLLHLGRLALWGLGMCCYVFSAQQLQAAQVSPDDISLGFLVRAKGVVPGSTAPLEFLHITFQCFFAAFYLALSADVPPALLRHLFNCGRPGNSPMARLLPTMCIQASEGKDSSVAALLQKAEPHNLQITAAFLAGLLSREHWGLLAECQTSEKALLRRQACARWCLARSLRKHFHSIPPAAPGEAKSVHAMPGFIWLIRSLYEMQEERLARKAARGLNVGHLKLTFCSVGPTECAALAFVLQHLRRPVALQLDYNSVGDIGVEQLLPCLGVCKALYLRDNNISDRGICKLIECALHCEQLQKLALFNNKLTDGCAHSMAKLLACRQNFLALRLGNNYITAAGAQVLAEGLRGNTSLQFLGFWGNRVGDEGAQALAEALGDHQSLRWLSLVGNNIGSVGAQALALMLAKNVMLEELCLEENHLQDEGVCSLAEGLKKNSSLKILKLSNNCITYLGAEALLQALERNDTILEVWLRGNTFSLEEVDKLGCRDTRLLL

[9] = biological target: T5, Nucleotide-binding oligomerization domain-containing protein 1 (Homo sapiens, UniProt Q9Y239); assay: SAR analysis of compounds that inhibit NOD1 - Set 3. [Related pubchem assays (depositor defined):AID1566, AID1575, AID1578, AID1849, AID1852, AID2333, AID2335, AID2466]; assay type: functional
T5 sequence (Q9Y239 whole entry): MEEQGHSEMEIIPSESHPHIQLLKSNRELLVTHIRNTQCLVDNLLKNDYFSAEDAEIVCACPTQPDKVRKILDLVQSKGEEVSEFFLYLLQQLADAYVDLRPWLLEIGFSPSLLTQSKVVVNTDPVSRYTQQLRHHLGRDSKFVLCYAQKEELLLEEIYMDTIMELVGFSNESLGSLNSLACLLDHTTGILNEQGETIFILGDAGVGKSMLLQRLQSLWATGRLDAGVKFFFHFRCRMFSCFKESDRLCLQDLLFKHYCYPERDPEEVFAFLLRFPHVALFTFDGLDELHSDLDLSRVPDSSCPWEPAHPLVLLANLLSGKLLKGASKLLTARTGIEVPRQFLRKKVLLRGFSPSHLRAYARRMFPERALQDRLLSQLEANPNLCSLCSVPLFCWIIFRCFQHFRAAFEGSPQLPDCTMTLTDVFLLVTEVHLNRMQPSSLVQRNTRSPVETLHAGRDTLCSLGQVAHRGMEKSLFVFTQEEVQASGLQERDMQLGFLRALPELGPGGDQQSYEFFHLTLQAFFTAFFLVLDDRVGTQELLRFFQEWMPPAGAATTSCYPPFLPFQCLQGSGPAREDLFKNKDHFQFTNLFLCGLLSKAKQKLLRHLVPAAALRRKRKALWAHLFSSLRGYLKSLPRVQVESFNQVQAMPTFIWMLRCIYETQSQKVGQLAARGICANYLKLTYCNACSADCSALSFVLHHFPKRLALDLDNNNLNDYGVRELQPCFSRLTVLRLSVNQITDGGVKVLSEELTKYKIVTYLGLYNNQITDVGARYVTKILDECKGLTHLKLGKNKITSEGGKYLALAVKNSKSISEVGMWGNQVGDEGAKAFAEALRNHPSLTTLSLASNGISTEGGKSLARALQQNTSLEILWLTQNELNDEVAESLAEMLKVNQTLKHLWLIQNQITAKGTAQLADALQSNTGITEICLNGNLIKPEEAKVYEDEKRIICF

[10] = biological target: T4, Nucleotide-binding oligomerization domain-containing protein 2; assay: inhibition of NOD2 signaling – set 2, SAR follow-up (AID 2475); assay type: functional
Streptococcus = assay: GAS UMAA2166 growth inhibition – luminescence, BacTiterGlo, counter-screen for streptokinase expression inhibitor project, dose response (AID 1915); assay type: functional, organism-based;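 further: potency for reduction of bacterial viability or growth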
Streptokinase A = biological target: T6, Streptokinase A (Streptococcus pyogenes serotype M1, UniProt P10520); assay: viability-normalized secreted streptokinase activity reduction – plasminogen activation absorbance, OD405, dose response (AID 1914); assay type: functional, Streptococcus pyogenes M1 GAS;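 further: secreted streptokinase activity via plasminogen activation per viability signal from cell pellet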
T6 sequence (P10520 whole entry): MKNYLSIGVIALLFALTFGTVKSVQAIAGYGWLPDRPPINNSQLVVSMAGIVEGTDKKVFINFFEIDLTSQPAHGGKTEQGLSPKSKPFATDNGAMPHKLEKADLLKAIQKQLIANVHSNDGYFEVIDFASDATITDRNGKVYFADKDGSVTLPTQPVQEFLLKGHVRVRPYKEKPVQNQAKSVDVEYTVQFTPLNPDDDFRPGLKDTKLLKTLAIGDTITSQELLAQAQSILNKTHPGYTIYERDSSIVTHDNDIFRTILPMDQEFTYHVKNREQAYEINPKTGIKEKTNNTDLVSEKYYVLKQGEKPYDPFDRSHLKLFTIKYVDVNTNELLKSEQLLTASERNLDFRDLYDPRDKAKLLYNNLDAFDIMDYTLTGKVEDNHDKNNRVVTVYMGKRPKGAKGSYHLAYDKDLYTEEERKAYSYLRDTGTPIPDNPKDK

Tumor necrosis factor = Tumor necrosis factor (Homo sapiens, UniProt P01375); assay: analog potency on TNFa NF-kB signaling – cell-based, set 3, SAR follow-up (AID 2801); assay type: functional
Chain of Tumor necrosis factor (P01375 whole entry): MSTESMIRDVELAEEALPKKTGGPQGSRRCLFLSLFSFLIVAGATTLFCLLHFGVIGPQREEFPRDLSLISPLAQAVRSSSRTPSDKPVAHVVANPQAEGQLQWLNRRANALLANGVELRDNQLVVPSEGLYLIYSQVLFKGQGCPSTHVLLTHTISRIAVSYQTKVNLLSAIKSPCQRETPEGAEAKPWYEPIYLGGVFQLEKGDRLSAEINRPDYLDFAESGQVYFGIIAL

Interleukin-8 [11] = biological target: T7, Interleukin-8 (Homo sapiens, UniProt P10145); assay: SAR analysis of GM-Tri-DAP induced IL-8 secretion in MCF-7/NOD1 cells - Set 2. [Related pubchem assays (depositor defined):AID1575, AID1578, AID2333]; assay type: functional, cell-based
T7 sequence (P10145 whole entry): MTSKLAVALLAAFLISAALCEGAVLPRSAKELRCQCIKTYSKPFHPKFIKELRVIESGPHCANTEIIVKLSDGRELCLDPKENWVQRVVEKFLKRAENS

[12] = biological target: T5, Nucleotide-binding oligomerization domain-containing protein 1; assay: SAR analysis of compounds that inhibit NOD1 - Set 2. [Related pubchem assays (depositor defined):AID1566, AID1575, AID1578, AID1849, AID1852, AID2333, AID2335, AID2798]; assay type: functional
HEK293 [13] = assay: SAR analysis of compounds that are cytotoxic to HEK293 - Set 3. [Related pubchem assays (depositor defined):AID1575, AID1578, AID1848, AID1849, AID2001, AID2333, AID2334, AID2335, AID2337, AID2469]; assay type: functional, cell-based; details: Homo sapiens
[14] = system: Streptococcus sp. 'group A'; assay: Streptococcus pyogenes SK(-)GAS viability under kanamycin – luminescence, BacTiterGlo, confirmation, counter-screen for streptokinase expression inhibitor project, dose response (AID 1900); assay type: functional, organism-based
[15] = biological target: T5, Nucleotide-binding oligomerization domain-containing protein 1; assay: SAR analysis of NF-kappaB dependent luciferase using DAP as an inducer - Set 2. [Related pubchem assays (depositor defined):AID1566, AID1575, AID1578, AID1579, AID1849, AID1852, AID2264]; assay type: functional
HEK293 [16] = assay: SAR analysis of compounds that are cytotoxic to HEK293 - Set 2. [Related pubchem assays (depositor defined):AID1575, AID1578, AID1849, AID2001, AID2333, AID2334, AID2335, AID2337, AID2800]; assay type: functional, cell-based; details: Homo sapiens
Interleukin-8 [17] = biological target: T7, Interleukin-8; assay: SAR analysis of Tumor necrosis factor alpha (TNF-alpha) induced IL-8 secretion in MCF-7/NOD1 cells - Set 2. [Related pubchem assays (depositor defined):AID1575, AID2250, AID2260]; assay type: functional, cell-based

Chain of Intestinal-type alkaline phosphatase (Mus musculus, UniProt P24822) (P24822 whole entry): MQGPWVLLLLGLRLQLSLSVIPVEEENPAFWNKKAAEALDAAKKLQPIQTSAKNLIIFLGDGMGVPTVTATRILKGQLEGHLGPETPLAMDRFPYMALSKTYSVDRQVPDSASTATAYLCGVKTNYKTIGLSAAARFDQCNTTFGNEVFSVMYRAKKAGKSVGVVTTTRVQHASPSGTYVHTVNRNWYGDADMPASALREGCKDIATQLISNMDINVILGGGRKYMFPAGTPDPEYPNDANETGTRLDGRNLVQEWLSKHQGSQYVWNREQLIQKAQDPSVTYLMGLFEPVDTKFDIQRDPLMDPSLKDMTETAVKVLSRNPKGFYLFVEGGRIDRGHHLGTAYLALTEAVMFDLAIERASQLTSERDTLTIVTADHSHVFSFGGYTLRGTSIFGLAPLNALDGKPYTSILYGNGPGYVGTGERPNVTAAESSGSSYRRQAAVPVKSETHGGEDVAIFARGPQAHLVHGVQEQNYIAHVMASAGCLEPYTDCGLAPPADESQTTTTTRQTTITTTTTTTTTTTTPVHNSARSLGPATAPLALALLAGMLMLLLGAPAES
Chain of Intestinal-type alkaline phosphatase (Homo sapiens, UniProt P09923) (P09923 whole entry): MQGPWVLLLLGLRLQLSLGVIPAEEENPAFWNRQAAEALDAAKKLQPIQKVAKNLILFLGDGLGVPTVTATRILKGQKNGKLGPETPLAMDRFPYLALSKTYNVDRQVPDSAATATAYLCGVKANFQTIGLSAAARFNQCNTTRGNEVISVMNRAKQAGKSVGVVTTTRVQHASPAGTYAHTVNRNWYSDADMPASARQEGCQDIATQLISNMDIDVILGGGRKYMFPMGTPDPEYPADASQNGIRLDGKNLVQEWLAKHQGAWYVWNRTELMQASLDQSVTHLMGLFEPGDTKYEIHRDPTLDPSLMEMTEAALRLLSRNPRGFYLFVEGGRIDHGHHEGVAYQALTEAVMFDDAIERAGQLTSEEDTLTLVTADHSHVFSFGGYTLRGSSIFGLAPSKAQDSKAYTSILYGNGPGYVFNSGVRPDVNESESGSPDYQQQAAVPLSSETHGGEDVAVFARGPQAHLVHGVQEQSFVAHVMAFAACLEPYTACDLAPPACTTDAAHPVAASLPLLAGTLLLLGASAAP

`CCn1cc(CN2CCC(C(=O)Nc3cccc(-c4cccc(Cl)c4)c3)CC2)c(C)n1` was tested, and the IC50 [1] was 12.8 µM (active), the IC50 [2] was > 100 µM (inactive) and the EC50 [3] was > 195 µM (not active). For the same compound, the IC50 [4] was > 100 µM (inactive).
`CCC(=S)/C=C1\Sc2ccccc2N1CCCS(=O)(=O)O` was tested, and the IC50 [5] was > 158 µM (not active), the IC50 [6] was 4.33 µM (active) and the AC50 (Cytochrome P450 2C9) was 22.4 µM (inconclusive). For the same compound, the IC50 [7] was 8.29 µM (active).
For `CCCCn1c(SCC(=O)c2ccccc2)nc2c1c(=O)[nH]c(=O)n2C`, the IC50 [8] was > 20 µM (inactive), the IC50 [9] was > 20 µM (inactive) and the IC50 [10] was > 20 µM (inactive). For the same compound, the EC50 (Streptococcus) was 18.4 µM (active), the EC50 (Streptokinase A) was > 150 µM (not active) and the IC50 (Tumor necrosis factor) was > 20 µM (inactive). The IC50 (Interleukin-8 [11]) was > 25 µM (inactive), the IC50 [12] was > 20 µM (inactive) and the IC50 (HEK293 [13]) was > 20 µM (inactive). For the same compound, the EC50 [14] was 3.37 µM (active), the IC50 [15] was > 25 µM (inactive) and the IC50 (HEK293 [16]) was > 20 µM (inactive). The IC50 (Interleukin-8 [17]) was > 25 µM (inactive).
